# From US7989633B2, “4-Chromenonyl-1,4-dihydropyridines and their use” (Bayer Schering Pharma Aktiengesellschaft, priority 2005, dated 2011)
# Biological target: T1, human mineralocorticoid receptor (MR) (Homo sapiens, UniProt P08235)
# T1 construct: expressed in transfected cells
# T1 sequence (P08235 734-984 limits assumed): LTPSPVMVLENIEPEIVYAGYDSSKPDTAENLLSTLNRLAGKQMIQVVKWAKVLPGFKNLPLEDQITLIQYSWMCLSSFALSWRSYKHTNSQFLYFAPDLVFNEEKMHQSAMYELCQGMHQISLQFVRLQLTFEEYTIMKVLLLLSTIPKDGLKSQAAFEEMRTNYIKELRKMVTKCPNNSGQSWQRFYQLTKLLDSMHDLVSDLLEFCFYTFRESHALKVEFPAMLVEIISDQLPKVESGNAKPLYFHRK
# Test: Cellular in vitro assay to determine the inhibitory MR activity (GAL4-MR chimera luciferase reporter in CHO K1 cells)
# Assay type: cell-based
# Conditions: GAL4-MR ligand-binding domain chimera in CHO K1 cells, agonist aldosterone
# Description: 1. Cellular In Vitro Assay to Determine the Inhibitory MR Activity and MR Selectivity Compared with Other Steroid Hormone Receptors
# Antagonists of the human mineralocorticoid receptor (MR) are identified, and the activity of the compounds described herein is quantified with the aid of a recombinant cell line. The cell is originally derived from a hamster ovary epithelial cell (Chinese Hamster Ovary, CHO K1, ATCC: American Type Culture Collection, VA 20108, USA).
# An established chimera system in which the ligand-binding domains of human steroid hormone receptors are fused to the DNA-binding domain of the yeast transcription factor GAL4 is used in this CHO K1 cell line. The GAL4-steroid hormone receptor chimeras produced in this way are cotransfected and stably expressed with a reporter construct in the CHO cells.
# To generate the GAL4-steroid hormone receptor chimeras, the GAL4 DNA binding domain (amino acids 1-147) from the vector pFC2-dbd (from Stratagene) is cloned with the PCR-amplified ligand-binding domains of the mineralocorticoid receptor (MR, amino acids 734-985), of the glucocorticoid receptor (GR, amino acids 443-777), of the progesterone receptor (PR, amino acids 680-933) and of the androgen receptor (AR, amino acids 667-919) into the vector pIRES2 (from Clontech). The reporter construct, which comprises five copies of the GAL4 binding site upstream of a thymidine kinase promoter, leads to expression of firefly-luciferase (Photinus pyralis) after activation and binding of the GAL4-steroid hormone receptor chimeras by the respective specific agonists aldosterone (MR), dexamethasone (GR), progesterone (PR) and dihydrotestosterone (AR).
# The MR, GR, PR and AR cells are plated out in medium (Optimem, 2.5% FCS, 2 mM glutamine, 10 mM HEPES) in 96- (or 384- or 1536-) well microtiter plates on the day before the assay and are kept in a cell incubator (96% humidity, 5% v/v CO2, 37° C.). On the day of the assay, the substances to be tested are taken up in the abovementioned medium and added to the cells. About 10 to 30 minutes after addition of the test substances, the respective specific agonists of the steroid hormone receptors are added. After a further incubation time of 5 to 6 hours, the luciferase activity is measured with the aid of a video camera. The measured relative light units as a function of the substance concentration result in a sigmoidal stimulation curve. The IC50 values are calculated with the aid of the GraphPad PRISM computer program (Version 3.02).
row,SMILES,IC50 [nM]
1,"CC(=O)C1=C(C)NC(C)=C(C(=O)OC2CCCC2)C1c1cccc2c(=O)cc(C)oc12 (stereo not shown) [Example 2, Cyclopentyl 5-acetyl-2,6-dimethyl-4-(2-methyl-4-oxo-4H-chromen-8-yl)-1,4-dihydropyridine-3-carboxylate]",22
2,"CC(=O)C1=C(C)NC(C)=C(C(=O)OC(C)C)C1c1cccc2c(=O)cc(C)oc12 (stereo not shown) [Example 3, Isopropyl 5-acetyl-2,6-dimethyl-4-(2-methyl-4-oxo-4H-chromen-8-yl)-1,4-dihydropyridine-3-carboxylate]",39
3,"CCOC(=O)C1=C(C)NC(C)=C(C(C)=O)C1c1ccc(F)c2c(=O)cc(C)oc12 (stereo not shown) [Example 11, Ethyl 5-acetyl-2,6-dimethyl-4-(5-fluoro-2-methyl-4-oxo-4H-chromen-8-yl)-1,4-dihydropyridine-3-carboxylate]",74
4,"COC(=O)C1=C(C)NC(C)=C(C(=O)CC2CCC2)C1c1cccc2c(=O)cc(C)oc12 (stereo not shown) [Example 34, Methyl 5-(cyclobutylacetyl)-2,6-dimethyl-4-(2-methyl-4-oxo-4H-chromen-8-yl)-1,4-dihydro-pyridine-3-carboxylate]",18

# Further compounds by falling IC50, results first:
row,IC50 [nM],SMILES
1,235,"COC(=O)C1=C(C)NC(C)=C(C(C)=O)C1c1cccc2c(=O)cc(C)oc12 (stereo not shown) [Example 4, Methyl 5-acetyl-2,6-dimethyl-4-(2-methyl-4-oxo-4H-chromen-8-yl)-1,4-dihydropyridine-3-carboxylate]"
2,104,"CCOC(=O)C1=C(C)NC(C)=C(C(=O)c2ccccc2)C1c1cccc2c(=O)cc(C)oc12 (stereo not shown) [Example 14, Ethyl 5-benzoyl-2,6-dimethyl-4-(2-methyl-4-oxo-4H-chromen-8-yl)-1,4-dihydropyridine-3-carboxylate]"
3,75,"CCOC(=O)C1=C(C)NC(C)=C(C(C)=O)C1c1cccc2c(=O)cc(C)oc12 (racemic) [Example 1 (Racemate), Ethyl 5-acetyl-2,6-dimethyl-4-(2-methyl-4-oxo-4H-chromen-8-yl)-1,4-dihydropyridine-3-carboxylate]"
4,43,"CCOC(=O)C1=C(C)NC(C)=C(C(C)=O)C1c1cccc2c(=O)cc(C)oc12 (single isomer, unassigned) [Example 1 (Enantiomer 2), Ethyl 5-acetyl-2,6-dimethyl-4-(2-methyl-4-oxo-4H-chromen-8-yl)-1,4-dihydropyridine-3-carboxylate]"
5,27,"COC(=O)C1=C(C)NC(C)=C(C(=O)c2ccc(C)cc2)C1c1cccc2c(=O)cc(C)oc12 (stereo not shown) [Example 37, Methyl 2,6-dimethyl-5-(4-methylbenzoyl)-4-(2-methyl-4-oxo-4H-chromen-8-yl)-1,4-dihydro-pyridine-3-carboxylate]"
6,19,"CC1=C(C(=O)OC(C)C)C(c2cccc3c(=O)cc(C)oc23)C(C(=O)C(F)(F)F)=C(C)N1 (stereo not shown) [Example 8, Isopropyl 2,6-dimethyl-4-(2-methyl-4-oxo-4H-chromen-8-yl)-5-(trifluoroacetyl)-1,4-dihydro-pyridine-3-carboxylate]"
